According to paper PMC6540285, “Evaluation of Protein Kinase Inhibitors with PLK4 Cross-Over Potential in a Pre-Clinical Model of Cancer” (International Journal of Molecular Sciences, 2019):

Tests used:
AMPK (A1/B1/G3) = AMPK (A1/B1/G3) (Homo sapiens, UniProt Q13131); test: SelectScreen kinase profiling, LanthaScreen binding
KIT V559D = KIT V559D (Homo sapiens, UniProt P10721, V559D); test: SelectScreen kinase profiling, ZLYTE; format: biochemical
FRK (PTK5) = FRK (PTK5) (Homo sapiens, UniProt P42685); test: SelectScreen kinase profiling, ZLYTE; format: biochemical
IRAK4 = IRAK4 (Homo sapiens, UniProt Q9NWZ3); test: SelectScreen kinase profiling, ZLYTE; format: biochemical; details: IRAK4, 10 µM
Sequence of IRAK4 (Q9NWZ3 whole entry): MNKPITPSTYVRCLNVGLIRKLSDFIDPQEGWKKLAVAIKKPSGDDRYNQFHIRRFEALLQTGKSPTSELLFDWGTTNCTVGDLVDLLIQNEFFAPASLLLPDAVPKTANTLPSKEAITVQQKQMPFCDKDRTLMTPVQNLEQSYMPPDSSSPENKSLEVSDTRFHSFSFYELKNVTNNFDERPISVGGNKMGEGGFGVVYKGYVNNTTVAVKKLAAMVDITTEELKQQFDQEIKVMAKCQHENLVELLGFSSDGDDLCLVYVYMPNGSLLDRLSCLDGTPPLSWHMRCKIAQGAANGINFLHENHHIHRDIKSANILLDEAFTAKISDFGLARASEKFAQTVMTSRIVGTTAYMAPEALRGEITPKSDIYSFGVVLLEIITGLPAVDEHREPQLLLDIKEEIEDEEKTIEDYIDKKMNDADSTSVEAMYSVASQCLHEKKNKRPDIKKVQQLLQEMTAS

MERTK (cMER) A708S = MERTK (cMER) A708S (Homo sapiens, UniProt Q12866, A708S); test: SelectScreen kinase profiling, LanthaScreen binding
STK17A (DRAK1) = STK17A (DRAK1) (Homo sapiens, UniProt Q9UEE5); test: as above
Sequence of STK17A (DRAK1) (Q9UEE5 whole entry): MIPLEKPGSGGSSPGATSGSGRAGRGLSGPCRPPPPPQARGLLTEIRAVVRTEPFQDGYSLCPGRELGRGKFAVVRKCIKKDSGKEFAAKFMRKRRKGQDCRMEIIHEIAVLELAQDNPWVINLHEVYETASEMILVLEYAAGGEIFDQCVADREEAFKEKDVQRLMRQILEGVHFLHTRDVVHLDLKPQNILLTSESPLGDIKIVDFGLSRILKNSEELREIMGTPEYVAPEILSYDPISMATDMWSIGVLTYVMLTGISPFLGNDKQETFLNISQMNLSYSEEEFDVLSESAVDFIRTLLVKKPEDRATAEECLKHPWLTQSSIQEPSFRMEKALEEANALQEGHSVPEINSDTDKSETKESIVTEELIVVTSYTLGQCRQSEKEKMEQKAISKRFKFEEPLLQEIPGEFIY

FGFR1 V561M = FGFR1 V561M (Homo sapiens, UniProt P11362, V561M); test: as above
CSNK1E (CK1 epsilon) = CSNK1E (CK1 epsilon) (Homo sapiens, UniProt P49674); test: SelectScreen kinase profiling, ZLYTE; format: biochemical
Description: (§1) Kinase Technology % Inhibition Avg Kinase Technology % Inhibition Avg
(§2) STK23 (MSSK1) ZLYTE 59 TGFBR1 (ALK5) LanthaScreen 85
(§3) STK24 (MST3) ZLYTE 85 TGFBR2 LanthaScreen 77
(§4) STK25 (YSK1) ZLYTE 45 TLK1 LanthaScreen 4
(§5) STK3 (MST2) ZLYTE 77 TLK2 LanthaScreen 33
(§6) STK32B (YANK2) LanthaScreen 61 TNIK LanthaScreen 15
(§7) STK32C (YANK3) LanthaScreen 62 TNK1 ZLYTE 94
(§8) STK33 LanthaScreen 81 TNK2 (ACK) LanthaScreen 71
(§9) STK38 (NDR) LanthaScreen 85 TTK LanthaScreen 54
(§10) STK38L (NDR2) LanthaScreen 59 TXK ZLYTE 94
(§11) STK39 (STLK3) LanthaScreen 38 TYK2 ZLYTE 99
(§12) STK4 (MST1) ZLYTE 93 TYRO3 (RSE) ZLYTE 92
(§13) SYK ZLYTE 98 ULK1 LanthaScreen 80
(§14) TAOK1 LanthaScreen 82 ULK2 LanthaScreen 56
(§15) TAOK2 (TAO1) ZLYTE 87 ULK3 LanthaScreen 5
(§16) TAOK3 (JIK) LanthaScreen 25 VRK2 LanthaScreen 32
(§17) TBK1 ZLYTE 99 WEE1 LanthaScreen 75
(§18) TEC LanthaScreen -9 WNK1 LanthaScreen 2
(§19) TEK (Tie2) ZLYTE 99 WNK2 LanthaScreen 1
(§20) TEK (TIE2) R849W LanthaScreen -5 WNK3 LanthaScreen 7
(§21) TEK (TIE2) Y897S ZLYTE 80 ZAK LanthaScreen 77
(§22) TESK1 LanthaScreen 37 ZAP70 ZLYTE 24
(§23) cleavage (Thermo Fisher Scientific, USA)

PAK7 (KIAA1264) = PAK7 (KIAA1264) (Homo sapiens, UniProt Q9P286); test: SelectScreen kinase profiling, ZLYTE; format: biochemical
Description: as §1, §2, §3, §4, §5, §6, §7, §8, §9, §10, §11, §12, §13, §14, §15, §16, §17, §18, §19, §20, §21, §22, §23

RPS6KA3 (RSK2) = RPS6KA3 (RSK2) (Homo sapiens, UniProt P51812); test: SelectScreen kinase profiling, ZLYTE; format: biochemical
Sequence of RPS6KA3 (RSK2) (P51812 whole entry): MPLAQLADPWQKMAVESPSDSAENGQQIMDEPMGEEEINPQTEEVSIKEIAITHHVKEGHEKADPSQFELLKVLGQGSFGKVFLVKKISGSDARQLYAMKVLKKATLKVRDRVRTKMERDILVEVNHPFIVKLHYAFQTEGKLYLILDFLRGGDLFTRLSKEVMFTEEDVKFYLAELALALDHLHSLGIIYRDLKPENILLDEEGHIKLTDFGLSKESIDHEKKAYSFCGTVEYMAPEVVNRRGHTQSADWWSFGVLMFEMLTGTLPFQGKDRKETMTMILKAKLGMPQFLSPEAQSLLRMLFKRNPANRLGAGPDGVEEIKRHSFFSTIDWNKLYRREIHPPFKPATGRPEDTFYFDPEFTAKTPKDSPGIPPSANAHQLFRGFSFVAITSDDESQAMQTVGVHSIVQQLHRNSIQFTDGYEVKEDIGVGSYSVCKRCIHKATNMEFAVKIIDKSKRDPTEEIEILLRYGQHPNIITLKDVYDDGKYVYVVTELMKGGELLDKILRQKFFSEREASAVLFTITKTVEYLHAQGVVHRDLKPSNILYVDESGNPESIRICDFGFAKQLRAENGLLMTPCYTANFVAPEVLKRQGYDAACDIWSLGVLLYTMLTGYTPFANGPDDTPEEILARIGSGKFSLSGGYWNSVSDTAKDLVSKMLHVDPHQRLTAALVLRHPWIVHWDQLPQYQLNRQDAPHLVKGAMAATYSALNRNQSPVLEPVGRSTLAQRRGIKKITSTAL
Description: as §1, §2, §3, §4, §5, §6, §7, §8, §9, §10, §11, §12, §13, §14, §15, §16, §17, §18, §19, §20, §21, §22, §23

KSR2 = KSR2 (Homo sapiens, UniProt Q6VAB6); test: SelectScreen kinase profiling, ZLYTE; format: biochemical; details: KSR2, 10 µM
Description: as §1, §2, §3, §4, §5, §6, §7, §8, §9, §10, §11, §12, §13, §14, §15, §16, §17, §18, §19, §20, §21, §22, §23

MAPKAPK3 = MAPKAPK3 (Homo sapiens, UniProt Q16644); test: SelectScreen kinase profiling, ZLYTE; format: biochemical; details: MAPKAPK3, 10 µM
Sequence of MAPKAPK3 (Q16644 whole entry): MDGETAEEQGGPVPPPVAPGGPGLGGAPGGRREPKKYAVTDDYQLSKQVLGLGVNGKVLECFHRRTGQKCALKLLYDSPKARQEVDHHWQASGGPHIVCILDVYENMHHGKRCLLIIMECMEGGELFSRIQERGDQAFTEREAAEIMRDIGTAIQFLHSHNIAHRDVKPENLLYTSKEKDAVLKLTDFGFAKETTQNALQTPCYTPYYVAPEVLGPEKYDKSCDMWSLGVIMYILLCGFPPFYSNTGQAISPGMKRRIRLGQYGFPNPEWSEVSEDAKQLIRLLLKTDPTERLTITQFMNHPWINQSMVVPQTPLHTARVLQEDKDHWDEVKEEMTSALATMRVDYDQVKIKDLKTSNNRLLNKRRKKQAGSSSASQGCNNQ
Description: as §1, §2, §3, §4, §5, §6, §7, §8, §9, §10, §11, §12, §13, §14, §15, §16, §17, §18, §19, §20, §21, §22, §23

PKN1 (PRK1) = PKN1 (PRK1) (Homo sapiens, UniProt Q16512); test: SelectScreen kinase profiling, ZLYTE; format: biochemical
Description: as §1, §2, §3, §4, §5, §6, §7, §8, §9, §10, §11, §12, §13, §14, §15, §16, §17, §18, §19, §20, §21, §22, §23

RAF1 (cRAF) Y340D Y341D = RAF1 (cRAF) Y340D Y341D (Homo sapiens, UniProt P04049, Y340D/Y341D); test: SelectScreen kinase profiling, ZLYTE; format: biochemical
Description: as §1, §2, §3, §4, §5, §6, §7, §8, §9, §10, §11, §12, §13, §14, §15, §16, §17, §18, §19, §20, §21, §22, §23

DYRK4 = DYRK4 (Homo sapiens, UniProt Q9NR20); test: SelectScreen kinase profiling, ZLYTE; format: biochemical; details: DYRK4, 10 µM
Sequence of DYRK4 (Q9NR20 whole entry): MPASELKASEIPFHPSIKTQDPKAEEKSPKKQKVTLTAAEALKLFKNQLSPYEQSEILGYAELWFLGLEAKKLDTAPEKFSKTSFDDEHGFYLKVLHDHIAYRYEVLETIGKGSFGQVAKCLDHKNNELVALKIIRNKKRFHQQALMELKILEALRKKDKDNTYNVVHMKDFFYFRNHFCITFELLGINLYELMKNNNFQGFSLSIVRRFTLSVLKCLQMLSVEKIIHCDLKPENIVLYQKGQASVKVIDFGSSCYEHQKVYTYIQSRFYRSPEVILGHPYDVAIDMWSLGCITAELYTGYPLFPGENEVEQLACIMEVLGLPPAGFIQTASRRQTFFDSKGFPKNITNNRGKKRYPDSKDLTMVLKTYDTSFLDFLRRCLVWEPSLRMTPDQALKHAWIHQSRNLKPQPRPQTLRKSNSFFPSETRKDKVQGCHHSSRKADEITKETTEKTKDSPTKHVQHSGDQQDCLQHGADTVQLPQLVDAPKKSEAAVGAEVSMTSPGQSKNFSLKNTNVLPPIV
Description: as §1, §2, §3, §4, §5, §6, §7, §8, §9, §10, §11, §12, §13, §14, §15, §16, §17, §18, §19, §20, §21, §22, §23

NEK6 = NEK6 (Homo sapiens, UniProt Q9HC98); test: SelectScreen kinase profiling, ZLYTE; format: biochemical; details: NEK6, 10 µM
Sequence of NEK6 (Q9HC98 whole entry): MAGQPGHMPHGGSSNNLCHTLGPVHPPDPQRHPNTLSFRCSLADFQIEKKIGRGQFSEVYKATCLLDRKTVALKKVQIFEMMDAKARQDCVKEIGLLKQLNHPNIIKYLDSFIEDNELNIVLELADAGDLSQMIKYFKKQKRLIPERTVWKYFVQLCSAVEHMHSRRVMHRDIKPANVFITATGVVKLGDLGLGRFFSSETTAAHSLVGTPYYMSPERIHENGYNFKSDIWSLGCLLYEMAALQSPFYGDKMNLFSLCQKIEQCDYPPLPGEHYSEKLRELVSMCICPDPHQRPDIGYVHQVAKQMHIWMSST
Description: as §1, §2, §3, §4, §5, §6, §7, §8, §9, §10, §11, §12, §13, §14, §15, §16, §17, §18, §19, §20, §21, §22, §23

SRPK1 = SRPK1 (Homo sapiens, UniProt Q96SB4); test: SelectScreen kinase profiling, ZLYTE; format: biochemical; details: SRPK1, 10 µM
Description: as §1, §2, §3, §4, §5, §6, §7, §8, §9, §10, §11, §12, §13, §14, §15, §16, §17, §18, §19, §20, §21, §22, §23

INSR = INSR (Homo sapiens, UniProt P06213); test: SelectScreen kinase profiling, ZLYTE; format: biochemical
Description: as §1, §2, §3, §4, §5, §6, §7, §8, §9, §10, §11, §12, §13, §14, §15, §16, §17, §18, §19, §20, §21, §22, §23

STK22D (TSSK1) = STK22D (TSSK1) (Homo sapiens, UniProt Q9BXA7); test: SelectScreen kinase profiling, ZLYTE; format: biochemical
Description: as §1, §2, §3, §4, §5, §6, §7, §8, §9, §10, §11, §12, §13, §14, §15, §16, §17, §18, §19, §20, §21, §22, §23

PDGFRA T674I = PDGFRA T674I (Homo sapiens, UniProt P16234, T674I); test: SelectScreen kinase profiling, ZLYTE; format: biochemical
Description: as §1, §2, §3, §4, §5, §6, §7, §8, §9, §10, §11, §12, §13, §14, §15, §16, §17, §18, §19, §20, §21, §22, §23

[1] = molecular target: PIK3CA E542K/PIK3R1 (p110 alpha E542K/p85 alpha) (Homo sapiens, UniProt P42336, E542K); test: SelectScreen kinase profiling, Adapta; format: biochemical; details: PIK3CA E542K/PIK3R1, 10 µM
MAP2K1 (MEK1) = MAP2K1 (MEK1) (Homo sapiens, UniProt Q02750); test: SelectScreen kinase profiling, ZLYTE; format: biochemical
CASK = CASK (Homo sapiens, UniProt O14936); test: SelectScreen kinase profiling, LanthaScreen binding
ADRBK2 (GRK3) = ADRBK2 (GRK3) (Homo sapiens, UniProt P35626); test: SelectScreen kinase profiling, ZLYTE; format: biochemical
MAP3K8 (COT) = MAP3K8 (COT) (Homo sapiens, UniProt P41279); test: SelectScreen kinase profiling, ZLYTE; format: biochemical
BMPR2 = BMPR2 (Homo sapiens, UniProt Q13873); test: SelectScreen kinase profiling, LanthaScreen binding; details: BMPR2, 10 µM
CDK8/cyclin C = CDK8/cyclin C (Homo sapiens, UniProt P49336); test: as above
DNA-PK = DNA-PK (Homo sapiens, UniProt P78527); test: SelectScreen kinase profiling, ZLYTE; format: biochemical
ACVR2B = ACVR2B (Homo sapiens, UniProt Q13705); test: SelectScreen kinase profiling, LanthaScreen binding
Sequence of ACVR2B (Q13705 19-512): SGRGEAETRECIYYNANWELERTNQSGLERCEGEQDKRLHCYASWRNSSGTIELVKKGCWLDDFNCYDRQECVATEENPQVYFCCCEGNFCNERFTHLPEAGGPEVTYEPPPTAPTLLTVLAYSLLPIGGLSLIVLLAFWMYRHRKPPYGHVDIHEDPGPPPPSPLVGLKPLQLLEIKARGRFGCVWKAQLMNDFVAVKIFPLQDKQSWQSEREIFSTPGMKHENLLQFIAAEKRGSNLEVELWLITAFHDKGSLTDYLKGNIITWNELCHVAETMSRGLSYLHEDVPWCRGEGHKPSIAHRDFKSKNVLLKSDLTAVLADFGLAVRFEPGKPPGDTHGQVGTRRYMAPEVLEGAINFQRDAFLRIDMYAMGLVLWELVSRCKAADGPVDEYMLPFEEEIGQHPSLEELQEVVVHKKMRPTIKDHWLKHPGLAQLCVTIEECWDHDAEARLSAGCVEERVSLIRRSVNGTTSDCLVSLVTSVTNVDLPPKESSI

CDK5/p35 = CDK5/p35 (Homo sapiens, UniProt Q00535); test: SelectScreen kinase profiling, ZLYTE; format: biochemical; details: CDK5/p35, 10 µM
Sequence of CDK5/p35 (Q00535 whole entry): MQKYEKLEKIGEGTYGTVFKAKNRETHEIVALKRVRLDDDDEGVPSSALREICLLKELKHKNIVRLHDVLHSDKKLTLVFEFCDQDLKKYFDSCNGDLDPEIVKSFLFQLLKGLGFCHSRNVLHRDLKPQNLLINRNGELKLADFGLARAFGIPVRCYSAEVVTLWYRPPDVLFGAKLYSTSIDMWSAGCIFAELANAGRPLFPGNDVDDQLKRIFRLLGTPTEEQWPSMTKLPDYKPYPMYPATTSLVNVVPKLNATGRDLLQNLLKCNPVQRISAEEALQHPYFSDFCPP
Sequence of CDK5/p35 (Q15078 whole entry partner): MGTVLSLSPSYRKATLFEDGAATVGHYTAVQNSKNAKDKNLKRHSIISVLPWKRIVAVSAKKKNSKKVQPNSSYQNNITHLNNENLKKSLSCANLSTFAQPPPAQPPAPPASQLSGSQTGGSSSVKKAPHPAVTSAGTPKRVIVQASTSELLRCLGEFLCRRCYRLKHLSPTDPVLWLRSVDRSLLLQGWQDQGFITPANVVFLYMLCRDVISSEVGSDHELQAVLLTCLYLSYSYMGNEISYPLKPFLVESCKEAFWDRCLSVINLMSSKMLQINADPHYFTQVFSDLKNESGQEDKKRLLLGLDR

Sequence of KIT V559D (P10721 26-976 V559D): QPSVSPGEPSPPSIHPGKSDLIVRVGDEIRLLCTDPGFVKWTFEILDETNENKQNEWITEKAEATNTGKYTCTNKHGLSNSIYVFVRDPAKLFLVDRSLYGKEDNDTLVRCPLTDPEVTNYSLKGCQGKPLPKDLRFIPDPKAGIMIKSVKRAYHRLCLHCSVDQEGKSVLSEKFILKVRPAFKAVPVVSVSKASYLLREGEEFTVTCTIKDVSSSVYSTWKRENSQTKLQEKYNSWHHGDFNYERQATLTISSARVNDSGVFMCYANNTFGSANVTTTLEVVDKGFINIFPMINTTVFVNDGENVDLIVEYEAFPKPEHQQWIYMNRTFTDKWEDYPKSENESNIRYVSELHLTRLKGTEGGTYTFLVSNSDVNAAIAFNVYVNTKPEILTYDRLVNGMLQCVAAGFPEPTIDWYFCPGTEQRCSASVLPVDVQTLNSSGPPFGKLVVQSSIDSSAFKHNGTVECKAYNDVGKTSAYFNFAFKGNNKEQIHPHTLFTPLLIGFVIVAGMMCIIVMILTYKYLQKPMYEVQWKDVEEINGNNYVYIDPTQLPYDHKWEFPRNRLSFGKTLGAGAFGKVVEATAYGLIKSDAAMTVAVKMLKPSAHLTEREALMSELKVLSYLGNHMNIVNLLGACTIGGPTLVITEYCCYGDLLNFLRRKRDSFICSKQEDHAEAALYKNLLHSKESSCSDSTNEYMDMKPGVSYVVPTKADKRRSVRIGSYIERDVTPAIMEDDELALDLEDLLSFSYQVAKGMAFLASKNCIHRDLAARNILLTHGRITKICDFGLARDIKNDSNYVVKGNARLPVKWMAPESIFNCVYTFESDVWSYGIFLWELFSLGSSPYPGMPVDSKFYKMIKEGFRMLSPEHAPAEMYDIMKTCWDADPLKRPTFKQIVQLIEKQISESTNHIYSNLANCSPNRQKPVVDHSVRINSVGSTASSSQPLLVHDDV

O=C(c1ccc(/C=C/c2n[nH]c3ccccc23)cc1)N1CCNCC1 [KW-2449]
inhibition at 10 µM (AMPK (A1/B1/G3)): 71% | inhibition at 10 µM (KIT V559D): 91% | inhibition at 10 µM (FRK (PTK5)): 90% | inhibition at 10 µM (IRAK4): 77% | inhibition at 10 µM (MERTK (cMER) A708S): 74% | inhibition at 10 µM (STK17A (DRAK1)): 85% | inhibition at 10 µM (FGFR1 V561M): 30% | inhibition at 10 µM (CSNK1E (CK1 epsilon)): 67% | inhibition at 10 µM (PAK7 (KIAA1264)): 98% | inhibition at 10 µM (RPS6KA3 (RSK2)): 95% | inhibition at 10 µM (KSR2): 5% | inhibition at 10 µM (MAPKAPK3): 4% | inhibition at 10 µM (PKN1 (PRK1)): 72% | inhibition at 10 µM (RAF1 (cRAF) Y340D Y341D): 74% | inhibition at 10 µM (DYRK4): 16% | inhibition at 10 µM (NEK6): 10% | inhibition at 10 µM (SRPK1): 31% | inhibition at 10 µM (INSR): 96% | inhibition at 10 µM (STK22D (TSSK1)): 99% | inhibition at 10 µM (PDGFRA T674I): 97% | inhibition at 10 µM [1]: 13% | inhibition at 10 µM (MAP2K1 (MEK1)): 72% | inhibition at 10 µM (CASK): -63% | inhibition at 10 µM (ADRBK2 (GRK3)): 31% | inhibition at 10 µM (MAP3K8 (COT)): 54% | inhibition at 10 µM (BMPR2): 113% | inhibition at 10 µM (CDK8/cyclin C): 38% | inhibition at 10 µM (DNA-PK): 24% | inhibition at 10 µM (ACVR2B): 94% | inhibition at 10 µM (CDK5/p35): 94%
